# Assay results from US7968752B2, “Hydrolytically-resistant boron-containing therapeutics and methods of use” (Anacor Pharmaceuticals, Inc., priority 2003, dated 2011).
# Assays:
# [1] = test system: S. aureus ATCC 29213; assay: MIC determination (NCCLS broth microdilution); type: cell-based; conditions: 24 hours at 34° C., lowest concentration with >=80% inhibition; for MIC: Staphylococcus aureus, ATCC29213
# [2] = test system: S. epidermidis ATCC 12228; assay: MIC determination (NCCLS broth microdilution); type: cell-based; conditions: 24 hours at 34° C., lowest concentration with >=80% inhibition; for MIC: Staphylococcus epidermidis, ATCC12228
# [3] = test system: S. pneumoniae ATCC 6301; assay: MIC determination (NCCLS broth microdilution); type: cell-based; conditions: 24 hours at 34° C., lowest concentration with >=80% inhibition; for MIC: Streptococcus pneumoniae, ATCC6301
# [4] = test system: S. faecalis ATCC 29212; assay: MIC determination (NCCLS broth microdilution); type: cell-based; conditions: 24 hours at 34° C., lowest concentration with >=80% inhibition; for MIC: Enterococcus faecalis, ATCC29212
# [5] = test system: S. faecium CT-26; assay: MIC determination (NCCLS broth microdilution); type: cell-based; conditions: 24 hours at 34° C., lowest concentration with >=80% inhibition; for MIC: Enterococcus faecium, CT26
# [6] = Cytotoxicity in HCV RNA replicon assay; conditions: human, ET cell line (luc-ubi-neo/ET)
# [7] = test system: 17D strain YFV virus; assay: microbe, parasite or virus in culture; type: cell-based, Yellow Fever (YFV); conditions: Yellow fever virus, HeLa, 168 h, read-out: Anti-Yellow Fever Activity IC50
# [8] = in vitro; conditions: human
# [9] = test system: HBV ayw1 strain; assay: HepG2 2.15 Antiviral Evaluation Assay; type: cell-based; conditions: Hepatitis B virus; HepG2 2.2.15 cells; read-out: Anti-Hepatitis B Activity IC50
# Method: (§1) HepG2 2.15 Antiviral Evaluation Assay—HepG2 2.2.15 cells, which produce HBV ayw1 strain, were plated in 96-well collagencoated microtiter plates at a density of 2.5×10^4/well with DMEM medium supplemented with 2% fetal bovine serum. One day following plating of cells, the wells were washed and the medium was replaced with complete medium containing the test compound diluted in the medium in a half-log series.
# (§2) The medium was replaced once with the fresh medium containing the freshly diluted compound three days post the initial addition of the lamivudine, a positive control compound. Cell viability was determined using CellTiter 96® Reagent (Promega, Madison, Wis.) according to the manufacturer's protocol, using a Vmax plate reader (Molecular Devices, Sunnyvale, Calif.). The mixture is metabolized by the mitochondrial enzymes of metabolically active cells to a soluble formazan product, allowing the rapid quantitative analysis of cell numbers. The media was removed and replaced with 100 μl of fresh media and 10 μl of Cell Titer 96. […] Percent cell viability of compound treated wells compared to no compound controls was calculated using an in-house computer program which graphs the percent reduction in viral cytopathic effects and the cell numbers at each drug concentration relative to control values.
# [10] = Cell viability (CellTiter 96) in HepG2 2.15 assay; type: cell-based; conditions: human, HepG2 2.2.15 cells (produce HBV ayw1 strain); read-out: Anti-Hepatitis B Activity TC50
# Method: as §1, §2
Structure (SMILES),MIC [1] [µg/mL],MIC [2] [µg/mL],MIC [3] [µg/mL],MIC [4] [µg/mL],MIC [5] [µg/mL],CC50 at 72 hr [6] [nM],IC50 [7] [nM],CC50 at 7 day [8] [nM],IC50 [9] [nM],CC50 [10] [nM],MIC S. aureus ATCC 29213 [1] [micrograms per ml],MIC S. epidermidis ATCC 12228 [2] [micrograms per ml],MIC S. pneumoniae ATCC 6301 [3] [micrograms per ml],MIC S. faecalis ATCC 29212 [4] [micrograms per ml],MIC S. faecium CT-26 [5] [micrograms per ml]
"Clc1cccc(B2OCc3ccccc32)c1 [Compound 12, 1-(3-Chlorophenyl)-1,3-dihydrobenzo[c][1,2]oxaborole]",0.5,2,8,16,16,12700,–,–,–,–,–,–,–,–,–
NCc1ccc(B2OCc3cc(F)ccc32)cc1 [Compound 23],2,8,8,16,16,–,–,–,–,–,–,–,–,–,–
"N#Cc1ccc(B2OCc3ccccc32)cc1 [Compound 18, 4-(Benzo[c][1,2]oxaborol-1(3H)-yl)benzonitrile]",2,2,4,32,32,–,740,6600,–,–,–,–,–,–,–
"Fc1ccc2c(c1)COB2c1cccc(Cl)c1 [Compound 11, 1-(3-Chlorophenyl)-5-fluoro-1,3-dihydrobenzo[c][1,2]oxaborole]",< 0.125,1,8,32,32,1290,650,4140,2470,3200,–,–,–,–,–
"N#Cc1ccc(B2OCc3cc(F)ccc32)cc1 [Compound 19, 4(5-Fluorobenzo[c][1,2]oxaborol-1(3H)-yl)benzonitrile]",8,16,16,> 64,> 64,270,–,17100,–,–,–,–,–,–,–
"Clc1ccc(B2OCc3ccccc32)cc1 [Compound 17, 1-(4-Chlorophenyl)-1,3-dihydrobenzo[c][1,2]oxaborole]",2,2,4,16,16,260,1560,6420,–,–,–,–,–,–,–
"Cc1onc(-c2ccccc2Cl)c1C(=O)N[C@@H]1C(=O)N2[C@@H]1SC(C)(C)[C@@H]2C(=O)O [Cloxacillin, reference compound]",0.125,0.25,0.125,16,64,–,–,–,–,–,–,–,–,–,–
"CC1(C)S[C@@H]2[C@H](NC(=O)Cc3ccccc3)C(=O)N2[C@H]1C(=O)O [Pen G, reference compound]",–,–,–,–,–,–,–,–,–,–,0.5,16,0.125,1,32
"Fc1ccc2c(c1)B(c1cccc(Cl)c1)OC2 [Compound 15, 1-(3-Chlorophenyl)-6-fluoro-1,3-dihydrobenzo[c][1,2]oxaborole]",0.5,2,4,16,8,540,1190,6600,–,–,–,–,–,–,–
"N#Cc1cccc(B2OCc3ccccc32)c1 [Compound 14, 3-(Benzo[c][1,2]oxaborol-1(3H)-yl)benzonitrile]",0.25,2,2,32,16,1140,440,6530,–,–,–,–,–,–,–
"Fc1cccc(B2OCc3cc(Cl)ccc32)c1 [Compound 13, 5-Chloro-1-(3-Fluorophenyl)-1,3-dihydrobenzo[c][1,2]oxaborole]",< 0.125,0.25,4,16,8,370,1390,6220,–,–,–,–,–,–,–
"Nc1ccn([C@@H]2CS[C@H](CO)O2)c(=O)n1 [lamivudine, reference compound]",–,–,–,–,–,–,–,–,9.3,> 1000,–,–,–,–,–
NCc1cccc(B2OCc3cc(F)ccc32)c1 [Compound 24],4,8,16,32,32,–,–,–,–,–,–,–,–,–,–
"CC1(C)OB(c2cccc(Cl)c2)c2ccccc21 [Compound 16, 1-(3-Chlorophenyl)-1,3-dihydro-3,3-dimethylbenzo[c][1,2]oxaborole]",0.5,2,8,16,16,–,–,–,–,–,–,–,–,–,–
"N#Cc1cccc(B2OCc3ccc(F)cc32)c1 [Compound 21, 3-(6-Fluorobenzo[c][1,2]oxaborol-1(3H)-yl)benzonitrile]",8,16,8,64,64,690,2360,15800,–,–,–,–,–,–,–
"CC[C@H]1OC(=O)[C@H](C)[C@@H](O[C@H]2C[C@@](C)(OC)[C@@H](O)[C@H](C)O2)[C@H](C)[C@@H](O[C@@H]2O[C@H](C)C[C@H](N(C)C)[C@H]2O)[C@](C)(O)C[C@@H](C)C(=O)[C@H](C)[C@@H](O)[C@]1(C)O [Erythromycin, reference compound]",0.5,0.5,–,2,–,–,–,–,–,–,–,–,–,–,–
"N#Cc1cccc(B2OCc3cc(F)ccc32)c1 [Compound 20, 3-(5-Fluorobenzo[c][1,2]oxaborol-1(3H)-yl)benzonitrile]",1,16,8,64,64,5990,1620,21000,–,–,–,–,–,–,–
"C[C@@H](O)[C@H]1C(=O)N2C(C(=O)O)=C(SCCN=CN)C[C@H]12 [Imipenem, reference compound]",0.125,0.125,0.125,1,64,–,–,–,–,–,–,–,–,–,–
"CO/N=C(\C(=O)N[C@@H]1C(=O)N2C(C(=O)O)=C(CSc3nc(=O)c(=O)[nH]n3C)CS[C@H]12)c1csc(N)n1 [Ceftriaxone, reference compound]",2,1,0.125,64,64,–,–,–,–,–,–,–,–,–,–
